Results: US20190376142A1, “METHOD TO DISTINGUISH TUMOR SUPRESSIVE FOXO ACTIVITY FROM OXIDATIVE STRESS” (KONINKLIJKE PHILIPS N.V., priority 2016, published 2019)

Key:
[1] = test system: FOXO activity in Human Umbilical Vein Endothelial Cells (HUVEC); test: Computational FOXO model on HUVEC with 4OHT-inducible FOXO3.A3-ER (GSE16573); assay type: cell-based
Excerpt: A. The Bayesian network structure used as a basis for the modeling approach shown as a simplified model of the transcriptional program of a cellular signal transduction pathway, consisting of three types of nodes: transcription factor, target gene and microarray probe sets corresponding to target genes. B. Training of the computational FOXO3 model on a public GEO dataset GSE16573, consisting of Affymetrix microarray 2.0 Plus expression data from HUVEC containing a 4OHT-inducible FOXO3.A3-ER expression construct. Each bar represents a sample analysis result.
The probabilistic relations in the Bayesian network model were made quantitative using experimental data to enable quantitative reasoning on new experimental samples.

[2] = test system: FOXO3 activity in EGFR-mutant HCC827 lung cancer cell line; test: Computational FOXO model on drug-treated HCC827 cells (GSE51212); settings: HCC827 treated with drug vs untreated (FOXO scored inactive); public dataset GSE51212
Protocol: (§1) Public datasets from samples that were treated with drugs targeting growth factor pathways. A. GEO GSE51212. […] B. GEO GSE30516 dataset.
(§2) Once the model has been calibrated, it could be used on microarray (Affymetrix HG-U133Plus2.0) data of new tumor samples by entering probeset measurements as observations in the bottom layer, and inferring backwards in the model the activity probability of the FOXO3 transcription factor. The model was frozen and applied to microarray data of cell line and tissue samples by entering probeset measurements as observations into the model, inferring backwards FOXO transcription factor activity score as the log-2 value of the FOXO transcription factor odds p/(1−p).
(§3) Parameters enforcing relationships between the FOXO transcription complex and target genes were manually set to improve generalization behavior of the model across different tissue types (11). Parameters describing relationships between target genes and their respective probe sets were calibrated on a public data set of Human Umbilical Vein Endothelial Cells (HUVEC) carrying inducible constitutively active FOXO3.A3-ER, and a threshold for FOXO-activity was set (GSE16573) (20).

[3] = test system: FOXO activity in BT20 (triple-negative breast cancer cell line); test: Computational FOXO model on Erlotinib-treated BT20 cells (GSE30516); settings: BT20 treated with Erlotinib; public dataset GSE30516
Protocol: as §1, §2, §3

[4] = test system: FOXO activity in MCF7 (ER positive breast cancer cell line); test: Computational FOXO model on Erlotinib-treated MCF7 cells (GSE30516); settings: MCF7 treated with Erlotinib; public dataset GSE30516
Protocol: as §1, §2, §3

[5] = test system: FOXO activity in MDA-MB-453 (HER2 positive breast cancer cell line); test: Computational FOXO model on Erlotinib-treated MDA-MB-453 cells (GSE30516); settings: MDA-MB-453 treated with Erlotinib; public dataset GSE30516
Protocol: as §1, §2, §3

How did the “FOXO activity predicted by the Bayesian model” value (“FOXO activity predicted” below) ([1]; HUVEC-FOXO3.A3-ER treated with 4OHT) turn out when `CC/C(=C(\c1ccc(O)cc1)c1ccc(OCCN(C)C)cc1)c1ccccc1` [4OHT] was run?
The value was “highly active FOXO”.

What about the “FOXO activity predicted” value ([1]; HUVECs expressing FOXO3.A3-ER-H212R (reduced DNA binding) treated with 4OHT) of the same compound?
The value was “low FOXO3 activity”.

And the “FOXO activity predicted” value ([1]; HUVECs without construct, treated with 4OHT)?
The value was “low FOXO activity”.

How did the “FOXO3 activity scored by the FOXO model” value [2] turn out when `Cn1c(=O)n(-c2ccc(C(C)(C)C#N)cc2)c2c3cc(-c4cnc5ccccc5c4)ccc3ncc21` [BEZ235] was run?
The value was “scored active”.

How did the FOXO activity score [3] turn out when `C#Cc1cccc(Nc2ncnc3cc(OCCOC)c(OCCOC)cc23)c1` [Erlotinib] was run?
The FOXO activity score was “increased”.

And the FOXO activity score [4]?
Its FOXO activity score is “increased”.

What about the FOXO activity score [5] of the same compound?
Its FOXO activity score is “increased”.
